Reference: patent US9320723B2, “Methods of treating thyroid eye disease” (University of Rochester, priority 2010, dated 2016)

Experiments:
[1] = tested on: orbital fibroblasts co-cultured with HMC-1 cells; experiment: Co-culture of HMC-1 mast cells with orbital fibroblasts, HA ELISA; type: cell-based, human; settings: HMC-1 cells pretreated with HQL-79, ratio 20:1, compared to vehicle
Method: HMC-1 mast cells were allowed to proliferate in Iscove's Modified Dulbecco's Medium (IMDM) enriched with 5% FBS. Co-cultures were initiated by introducing HMC-1 cells to confluent cultures of fibroblasts as previously described (24). Mast cells were washed with RPMI-1640 medium (0.5% FBS) once before addition to the fibroblasts (1:1 ratio, unless otherwise specified). After 4 hours, the media and HMC-1 cells were removed by gently rinsing in PBS and fresh RPMI-1640 medium (0.5% FBS) was used to cover the cells. Alternatively, fibroblasts and mast cells were co-cultured in a transwell system (0.4 μm; Greiner Bio-one, New York, N.Y.) with fibroblasts being cultured on the bottom and the mast cells in the top chamber. The ratio of mast cells to fibroblasts was varied from 5:1 to 20:1.
Aliquots of culture medium were removed at indicated time points, centrifuged (5 min, 8,000×g at 4° C.) and HA levels quantified by enzyme-linked immunosorbent assay (ELISA) according to the manufacturer's protocol (R&D Systems). Briefly, samples were incubated in HA-binding protein (HABP)-coated microwells, allowing HA in samples to react with the immobilized HABP. […] After the last wash, the chromogenic substrate was added and HA levels were determined using a Varioskan Flash plate reader (Thermo Fisher Scientific, Milford, Mass.).

HMC-1 cells = experiment: Measurement of PGD2 produced by mast cells (PGD2-MOX EIA); type: cell-based, human; settings: HQL-79 100 μM 60 minutes, then A23187
Method: HMC-1 cells (1×10^6/well) were seeded into 6-well plates and cultured in IMDM medium with 5% FBS in the absence or presence of HQL-79 (H-PGDS inhibitor, 100 μM) at 37° C. for 60 minutes. The cells were then washed and resuspended in RPMI 1640 medium with 0.5% FBS. After 2 hours incubation, the cells were stimulated with 10 μM calcium ionophore A23187 for 30 minutes. The culture media were collected and PGD2 in the supernatants was quantified by PGD2-MOX EIA kits (Cayman Chemical).

[2] = tested on: human orbital fibroblasts; experiment: HA ELISA of culture medium of orbital fibroblasts treated with prostaglandins or drugs; type: cell-based; settings: 18 hours, strains OF1 and OF2
Excerpt: Orbital fibroblasts: Primary orbital fibroblasts were isolated from TED patients undergoing orbital decompression surgery. The protocols for orbital biopsy and blood sample, described below, were approved by the Internal Review Board and informed, written consent was obtained from all patients. […] Fibroblasts were characterized by their adherent morphology, expression of vimentin and types I and III collagen and absence of CD45, factor VIII or cytokeratin. Fibroblasts were used at the earliest passage possible (between passages 4 to 10). Human T cells: Lymphocytes were isolated from 60 ml of peripheral blood obtained during orbital decompression surgery. Whole blood was separated over a Ficoll-Paque Plus Gradient (Amersham Biosciences, Piscataway, N.J.) to obtain peripheral blood mononuclear cells. T cells were enriched using CD3/CD28 T cell Expander beads (Invitogen). […] After that, 50 U/ml of recombinant interleukin-2 (rIL-2) was added to the culture and incubated for another 2-3 days. On day 5, cells were diluted to a concentration of 0.5×10^6 cells/ml in medium containing 50 U/ml rIL-2 and incubated for an additional 3-7 days. Cellular purity was assessed using an anti-CD3-PE antibody (BD Biosciences, San Jose, Calif.) and analyzed on a FACSCalibur flow cytometer (BD Biosciences).
Aliquots of culture medium were removed at indicated time points, centrifuged (5 min, 8,000×g at 4° C.) and HA levels quantified by enzyme-linked immunosorbent assay (ELISA) according to the manufacturer's protocol (R&D Systems). Briefly, samples were incubated in HA-binding protein (HABP)-coated microwells, allowing HA in samples to react with the immobilized HABP. After the removal of unbound molecules by washing, biotinylated-HABP was added to the microwells. Following a second wash, streptavidin-conjugated to horseradish peroxidase was added. After the last wash, the chromogenic substrate was added and HA levels were determined using a Varioskan Flash plate reader (Thermo Fisher Scientific, Milford, Mass.).

orbital fibroblasts [3] = experiment: Measurement of intracellular cAMP (TR-FRET immunoassay); type: cell-based, human; settings: PGD2 5 μM, BW245C 10 μM, up to 60 minutes
Method: cAMP levels were quantified using a time-resolved fluorescence resonance energy transfer (TR-FRET) immunoassay from Perkin Elmer (Waltham, Mass.) according to the manufacturer's protocol. Briefly, orbital fibroblasts were detached with a non-enzymatic cell dissociation solution (Versene, Invitrogen) and re-suspended in Stimulation Buffer (pH 7.4; 1×HBSS buffer containing 5 mmol/L HEPES buffer and 0.01%-0.1% BSA) containing 0.5 mM IBMX and labeled with the Alexa Fluor® 647-labeled anti-cAMP antibody. Finally, the cells were incubated with drugs at the indicated times. Following addition of the detection buffer, the amount of cAMP signal was measured.

[4] = tested on: human orbital fibroblasts; experiment: qRT-PCR of HAS mRNA after PGD2 or BW245C; type: cell-based; settings: 5 μM PGD2, 2 hours
Method: (§1) RNA was isolated from orbital fibroblasts or T cells using an RNeasy Mini kit (Qiagen). RNA was reverse transcribed to cDNA using iScript cDNA synthesis kit (Bio-Rad) and diluted 5-fold in RNase-free H2O. Forward and reverse primers for each gene are shown in Table I. RT-PCR: The PCR reaction was performed using Qiagen Fast Cycling PCR kit for 30 cycles in a Bio-Rad thermal cycler. The PCR product was visualized on a 5% acrylamide gel stained with ethidium bromide. Amplifications without reverse transcriptase were carried out as negative controls. qRT-PCR: qRT-PCR was performed in a Bio-Rad iCycler containing B-R SYBR Green SuperMix for IQ (Quanta Biosciences, Gaithersburg, Md.). Efficiency of the amplification was determined to be >90%.
(§2) Amplification of 7S ribosomal RNA was carried out for each cDNA (in triplicate) for normalization. Threshold cycle number (Ct) of amplification in each sample was determined by Bio-Rad software and the relative mRNA abundance was calculated as the Ct for amplification of a gene-specific cDNA minus average Ct for 7S, expressed as a power of 2; i.e., 2^ΔCt.

[5] = tested on: human orbital fibroblasts (OF1 and OF2); experiment: Agarose gel electrophoresis of HA in conditioned media; type: cell-based; settings: 5 μM PGD2, 18 hours
Method: Fibroblasts were cultured to confluence in 10 cm^2 dishes in RPMI containing 10% FBS, followed by RPMI with 2% FBS for 3 days. Fibroblasts were then treated with 5 μM PGD2 or control (DMSO) for 18 hours. Cell culture supernatant was centrifuged (5 min at 8,000×g at 4° C.) and half of the sample digested with 1 TRU/ml Streptomyces hyaluronidase (Sigma) at 37° C. for 4 hours; the remainder of the sample was mock-digested. Following digestion with proteinase K (120 μg/ml) (Qiagen, Valencia, Calif.) at 37° C. for 4 hours, the samples were concentrated using Vivaspin 10,000 Da cut-off ultrafiltration spin column (Sartorius Stedim Biotech, Goettingen, Germany), washed with PBS and analyzed by 1% agarose electrophoresis. Select-HA HiLadder (Hyalose LLC, Oklahoma City, Okla.) and blue dextran (Sigma; molecular weight 2×10^6 Da) were also run as standards. The gel was stained with 0.005% Stains-All (Sigma) in 50% ethanol overnight at room temperature before being scanned on an HP scanner.

[6] = tested on: orbital fibroblast strains OF1 and OF2; experiment: qRT-PCR of hyaluronidase mRNA (HYAL1-3); type: cell-based, human; settings: 5 μM PGD2, 4 hours
Method: as §1, §2

[7] = tested on: human orbital fibroblasts; settings: previously reported (Feldon et al. 2006); cited from earlier work
[8] = tested on: human orbital fibroblasts; experiment: Quantitation of secreted, pericellular and intracellular HA by ELISA, TGF-β1 treatment; type: cell-based
Method: Confluent monolayers of orbital fibroblasts were serum starved in 0.5% FBS RPMI-1640 medium for three days and pretreated with different concentrations of Pio or Rosi for 1 hour and then treated with or without 2 ng/ml TGF-β1 for 24 hours. After treatments, an aliquot of culture medium (secreted HA) was removed and centrifuged at 8,000×g at 4° C. for 5 minutes and the supernatant was saved for later analysis. The cells were washed twice with PBS and treated with 0.25% trypsin-EDTA solution (GIBCO, Invitrogen) at 37° C. for 5 minutes, the reaction was stopped by addition of culture medium and cell number was determined using a hemocytometer. The cells were then centrifuged and the supernatant was collected and incubated at 100° C. for 10 minutes to inactivate trypsin activity. This supernatant was saved for pericellular HA detection. The cell pellet was washed with PBS once and digested with 120 μg/ml proteinase K in 0.1% SDS/0.1 M Tris-HCl (pH 7.6) at 37° C. for 1 hour, and proteinase K was inactivated by incubation at 100° C. for 10 min. The cell lysate was centrifuged and supernatant analyzed for intracellular HA.
The amount of HA in each extract (secreted HA, pericellular HA and intracellular HA) was measured by ELISA based on the specific interaction of HA with HA binding protein (HABP). The HA detection kit was purchased from R&D system (Minneapolis, Minn.). Briefly, diluted samples were incubated in HABP-coated microwells, allowing HA present in samples to react with the immobilized HABP. After extensive washing, biotinylated HABP was added to the microwells to form complexes with bound HA. Following another round of washing, streptavidin conjugated horseradish peroxidase was added. After a brief incubation period and washing, chromogenic substrate was added and HA levels were determined using a Varioskan Flash plate reader (Thermo Fisher Scientific, Milford, Mass.). A fraction of the samples were pretreated with Streptomyces hyaluronidase (2 U/ml at 37° C. for 2 hour) before subjected to the ELISA assay as a negative control. Furthermore, an additional 50 ng/ml (final concentration) of free soluble HA was added to a fraction of the cell lysate samples to confirm that there are no inhibitory factors present and that the assays show the expected additivity when a known amount of exogenous HA is included.

[9] = tested on: human orbital fibroblasts; experiment: qRT-PCR of HAS mRNA after TGF-β1 with or without Pio or Rosi; type: cell-based; settings: 2 ng/ml TGF-β1, 6 hours
Excerpt: RNA was isolated from orbital fibroblast strains using the RNeasy Mini kit according to the manufacturer's protocol (Qiagen, Valencia, Calif.) and reverse transcripted to cDNA using iScript cDNA synthesis kit (Bio-Rad, Hercules, Calif.). Primers for human HAS1, 2, 3 and 7S as well as qRT-PCR method to detect relative abundance of mRNA are identified supra. Primers for human PPARγ1 (NM138711) and PPARγ 2 (NM015869) mRNA were 5′-AAAGAAGCCGA-CACTAAACC-3′ (SEQ ID NO:3) (sense), 5′-CTTCCATTACGG-AGAGATCC-3′ (SEQ ID NO:4) (antisense) and, 5′-GCGATTC-CTTCACTGATAC-3′ (SEQ ID NO:5) (sense), 5′-CTTCCATT-ACGGAGAGATCC-3′ (SEQ ID NO:6) (antisense), respectively.

[10] = tested on: human peripheral blood T cells adhering to orbital fibroblasts; experiment: T cell adhesion assay; type: cell-based; settings: fibroblasts treated with 2 ng/ml TGF-β1, 24 hours
Method: Confluent orbital fibroblasts in a 96-well plate were serum starved and incubated with different concentrations of Pio or Rosi treated with or without 2 ng/ml TGF1 for 24 hours. In some cultures, orbital fibroblasts were treated with Streptomyces hyaluronidase (100 mU/ml at 37° C. for 1 hour) prior to the adhesion assay to deplete endogenous HA. Adhesion Test. Immediately before the adhesion assay, the conditioned medium of orbital fibroblasts was removed to eliminate treatments and secreted ECM. 1×10^5/well of Calcein AM labeled T cells were added to a 96-well plate with a confluent orbital fibroblast monolayer and allowed to adhere for 90 min at 4° C. as previously described. Plates were washed three times with the addition of 200 ul of PBS followed by plate inversion and gentle tapping to remove the wash solution. Fluorescence was measured with an excitation of 485 nm and detection of 535 nm, in a Varioskan Flash plate reader (Thermo Electron Corporation).

orbital fibroblasts [11] = experiment: Immunofluorescence staining of HA with biotinylated HABP; type: cell-based, human; settings: 2 ng/ml TGF-β1, 24 hours
Method: Orbital fibroblasts were cultured in 8-chamber slides (BD REF354108) and fixed in room temperature 3% paraformaldehyde in PBS and stained with 1 μg/ml biotinylated HABP (Seikagaku, Cape Cod) followed by Cy3-conjugated streptavidin (Jackson laboratories, West Grove, Pa.). F-actin was stained with Phalloidin (Molecular Probes). In some cultures, orbital fibroblasts were treated with Streptomyces hyaluronidase prior to staining T cells were stained with an anti-CD3 monoclonal antibody (clone UCHT, SouthernBiotech, Birmingham, Ala.) followed by a goat anti-mouse antibody labeled with Alexa-488 (Molecular Probes). DAPI (10 μg/ml, Anaspec, San Jose, Calif.) was used for nuclear staining.

[12] = 2 ng/ml TGF-β1, 24 hours, strain #1, compared to vehicle

What does the source list for `c1ccc(C(OC2CCN(CCCc3nnn[nH]3)CC2)c2ccccc2)cc1` [HQL-79, 4-benzhydryloxy-1-[3-(1H-tetrazol-5-yl)-propyl]-piperidine]?
production of HA by orbital fibroblasts in transwell co-culture [1]: significantly attenuated the production of HA by orbital fibroblasts; level of PGD2 in activated HMC-1 cells (HMC-1 cells): significantly reduced the level of PGD2 in activated HMC-1 cells

What does the source list for `CCCCC[C@H](O)/C=C/[C@H]1C(=O)C[C@H](O)[C@@H]1C/C=C\CCCC(=O)O` [PGD2]?
concentration yielding the largest induction of HA [2]: 5 µM; HA synthesis (HA ELISA) ([2]; increasing concentrations): significantly increased HA synthesis by both fibroblast strains in a dose-dependant manner; intracellular cAMP production (orbital fibroblasts [3]): significantly increased intracellular cAMP production within 15 to 30 minutes; HAS1, HAS2 and HAS3 mRNA [4]: the mRNA for all three HAS isoforms increased significantly; increase in HAS1 mRNA ([4]; compared to time 0): 2807±213; HA in conditioned media (agarose gel) [5]: increased HA compared with vehicle; HYAL1, HYAL2 and HYAL3 mRNA ([6]; strain OF1): significant induction in HYAL1, HYAL2 and HYAL3 mRNA; hyaluronidase mRNA expression ([6]; strain OF2): failed to significantly increase hyaluronidase mRNA expression; adipogenesis in human orbital fibroblasts [7]: induce adipogenesis

For “TGF-β1: Recombinant human TGF-β1 purchased from Calbiochem”, which “intracellular HA levels” value ([8]; 2 ng/ml TGF-β1, 24 hours) is on record?
Its value is “had no effect on intracellular HA levels”.

What about the “increase of pericellular HA levels” value [8, 12] of the same molecule?
The value was 8.34±1.33 fold.

And the “increase of secreted HA levels” value [8, 12]?
The value was 12.16±0.15 fold.

What about the “share of newly synthesized HA secreted into the ECM” value ([8]; TGF-β1 mediated) of the same molecule?
Its value is “about 70%”.

What about the “secreted HA compared with pericellular HA” value ([8]; fibroblasts treated with TGF-β1, strain #1) of the same molecule?
Its value is 2.31±0.36 fold.

What about the “HAS3 mRNA levels” value [9] of the same molecule?
Its value is “remained unchanged”.

And the “increase of HAS1 mRNA levels” value [9]?
The value was “about 50 fold”.

And the “increase of HAS2 mRNA levels” value [9]?
The value was about 6 fold.

And the “adhesion of T cells to orbital fibroblasts” value [10]?
Its value is “significantly increased compared to untreated control fibroblasts”.

And the “HA staining (immunofluorescence)” value (orbital fibroblasts [11])?
Its value is “HA staining is more pronounced and forms microvillus-like protrusions”.
